Measured values published in ChEMBL document CHEMBL5463729, “Data for DCP probe BAY 1753011” (2023).

Legend:
Settings in all cases: Compound concentration 10.0 uM
[1] = target: Calcium/calmodulin-dependent protein kinase type II subunit beta (Homo sapiens) (UniProt Q13554); assay: Inhibition of CaMKIIbeta(h) at 10.0 µM in the Eurofins Kinase panel
[2] = target: CDK9/cyclin T1 (Homo sapiens) (UniProt O60563+P50750); assay: Inhibition of CDK9/cyclin T1(h) at 10.0 µM in the Eurofins Kinase panel; assay type: protein-complex assay
[3] = target: Serine/threonine-protein kinase 17B (Homo sapiens) (UniProt O94768); assay: Inhibition of DRAK2(h) at 10.0 µM in the Eurofins Kinase panel
[4] = target: Ephrin type-B receptor 3 (Homo sapiens) (UniProt P54753); assay: Inhibition of EphB3(h) at 10.0 µM in the Eurofins Kinase panel
[5] = target: Macrophage colony-stimulating factor 1 receptor (Homo sapiens) (UniProt P07333); assay: Inhibition of Fms(h) at 10.0 µM in the Eurofins Kinase panel
[6] = target: G protein-coupled receptor kinase 6 (Homo sapiens) (UniProt P43250); assay: Inhibition of GRK6(h) at 10.0 µM in the Eurofins Kinase panel
[7] = target: Insulin-like growth factor 1 receptor (Homo sapiens) (UniProt P08069); assay: Inhibition of IGF-1R(h), activated at 10.0 µM in the Eurofins Kinase panel
[8] = target: Insulin receptor (Homo sapiens) (UniProt P06213); assay: Inhibition of IR(h), activated at 10.0 µM in the Eurofins Kinase panel
[9] = target: Interleukin-1 receptor-associated kinase 1 (Homo sapiens) (UniProt P51617); assay: Inhibition of IRAK1(h) at 10.0 µM in the Eurofins Kinase panel
[10] = target: Mitogen-activated protein kinase 8 (Homo sapiens) (UniProt P45983); assay: Inhibition of JNK1alpha1(h) at 10.0 µM in the Eurofins Kinase panel
[11] = target: Tyrosine-protein kinase Lyn (Homo sapiens) (UniProt P07948); assay: Inhibition of Lyn(h) at 10.0 µM in the Eurofins Kinase panel
[12] = target: Mitogen-activated protein kinase kinase kinase kinase 5 (Homo sapiens) (UniProt Q9Y4K4); assay: Inhibition of MAP4K5(h) at 10.0 µM in the Eurofins Kinase panel
[13] = target: MAP kinase-activated protein kinase 3 (Homo sapiens) (UniProt Q16644); assay: Inhibition of MAPKAP-K3(h) at 10.0 µM in the Eurofins Kinase panel
[14] = target: Dual specificity mitogen-activated protein kinase kinase 3 (Homo sapiens) (UniProt P46734); assay: Inhibition of MKK3(h) at 10.0 µM in the Eurofins Kinase panel
[15] = target: Dual specificity mitogen-activated protein kinase kinase 6 (Homo sapiens) (UniProt P52564); assay: Inhibition of MKK6(h) at 10.0 µM in the Eurofins Kinase panel
[16] = target: Mitogen-activated protein kinase kinase kinase 21 (Homo sapiens) (UniProt Q5TCX8); assay: Inhibition of MLK4(h) at 10.0 µM in the Eurofins Kinase panel
[17] = target: Ribosomal protein S6 kinase alpha-5 (Homo sapiens) (UniProt O75582); assay: Inhibition of MSK1(h) at 10.0 µM in the Eurofins Kinase panel
[18] = target: Serine/threonine-protein kinase mTOR (Homo sapiens) (UniProt P42345); assay: Inhibition of mTOR(h) at 10.0 µM in the Eurofins Kinase panel
[19] = target: Myosin light chain kinase 2, skeletal/cardiac muscle (Homo sapiens) (UniProt Q9H1R3); assay: Inhibition of MYLK2(h) at 10.0 µM in the Eurofins Kinase panel
[20] = target: Serine/threonine-protein kinase Nek11 (Homo sapiens) (UniProt Q8NG66); assay: Inhibition of NEK11(h) at 10.0 µM in the Eurofins Kinase panel
[21] = target: Ribosomal protein S6 kinase beta-1 (Homo sapiens) (UniProt P23443); assay: Inhibition of p70S6K(h) at 10.0 µM in the Eurofins Kinase panel
[22] = target: Platelet-derived growth factor receptor beta (Homo sapiens) (UniProt P09619); assay: Inhibition of PDGFRbeta(h) at 10.0 µM in the Eurofins Kinase panel
[23] = target: Protein kinase C beta type (Homo sapiens) (UniProt P05771); assay: Inhibition of PKCbetaI(h) at 10.0 µM in the Eurofins Kinase panel
[24] = target: SRSF protein kinase 1 (Homo sapiens) (UniProt Q96SB4); assay: Inhibition of SRPK1(h) at 10.0 µM in the Eurofins Kinase panel
[25] = target: Non-receptor tyrosine-protein kinase TYK2 (Homo sapiens) (UniProt P29597); assay: Inhibition of TYK2(h) at 10.0 µM in the Eurofins Kinase panel
[26] = target: Serine/threonine-protein kinase VRK2 (Homo sapiens) (UniProt Q86Y07); assay: Inhibition of VRK2(h) at 10.0 µM in the Eurofins Kinase panel
[27] = target: Tyrosine-protein kinase ZAP-70 (Homo sapiens) (UniProt P43403); assay: Inhibition of ZAP-70(h) at 10.0 µM in the Eurofins Kinase panel
[28] = target: Death-associated protein kinase 3 (Homo sapiens) (UniProt O43293); assay: Inhibition of ZIPK(h) at 10.0 µM in the Eurofins Kinase panel
[29] = target: Phosphatidylinositol 4-phosphate 5-kinase type-1 alpha (Homo sapiens) (UniProt Q99755); assay: Inhibition of PIP5K1a(h) at 10.0 µM in the Eurofins Kinase panel
[30] = target: Beta-1 adrenergic receptor (Homo sapiens) (UniProt P08588)
[31] = target: Kappa-type opioid receptor (Homo sapiens, UniProt P41145)
[32] = target: Type-2 angiotensin II receptor (Homo sapiens) (UniProt P50052)
[33] = target: D(2) dopamine receptor (Homo sapiens) (UniProt P14416)
[34] = target: T1, Alpha-2C adrenergic receptor (Homo sapiens) (UniProt P18825)
T1 sequence (whole entry): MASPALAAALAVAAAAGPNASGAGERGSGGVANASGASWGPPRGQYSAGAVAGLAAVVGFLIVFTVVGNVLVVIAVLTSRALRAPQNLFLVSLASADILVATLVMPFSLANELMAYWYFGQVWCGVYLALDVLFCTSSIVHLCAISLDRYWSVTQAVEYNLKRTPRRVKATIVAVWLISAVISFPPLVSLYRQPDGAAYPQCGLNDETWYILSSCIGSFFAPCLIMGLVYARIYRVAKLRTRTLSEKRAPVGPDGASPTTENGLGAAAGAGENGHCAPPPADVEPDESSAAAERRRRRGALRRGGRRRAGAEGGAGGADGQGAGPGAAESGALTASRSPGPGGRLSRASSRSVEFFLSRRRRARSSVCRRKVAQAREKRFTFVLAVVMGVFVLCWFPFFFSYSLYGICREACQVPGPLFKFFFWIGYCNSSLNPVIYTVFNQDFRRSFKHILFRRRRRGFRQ

Beta-1 adrenergic receptor (Homo sapiens), sequence (P08588 whole entry, looked up): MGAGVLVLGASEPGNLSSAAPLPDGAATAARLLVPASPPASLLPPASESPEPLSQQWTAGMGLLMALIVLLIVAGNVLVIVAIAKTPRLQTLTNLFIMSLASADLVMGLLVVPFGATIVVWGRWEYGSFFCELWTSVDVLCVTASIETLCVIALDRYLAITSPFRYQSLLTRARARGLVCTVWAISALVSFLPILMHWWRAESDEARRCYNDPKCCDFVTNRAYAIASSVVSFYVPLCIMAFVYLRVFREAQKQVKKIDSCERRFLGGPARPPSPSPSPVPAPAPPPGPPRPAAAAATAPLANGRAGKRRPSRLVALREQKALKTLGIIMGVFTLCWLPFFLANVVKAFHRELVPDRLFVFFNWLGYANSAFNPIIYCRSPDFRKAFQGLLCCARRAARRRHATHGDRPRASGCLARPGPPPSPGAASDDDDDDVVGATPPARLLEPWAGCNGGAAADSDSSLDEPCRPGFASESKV
Ribosomal protein S6 kinase alpha-5 (Homo sapiens), sequence (O75582 whole entry, looked up): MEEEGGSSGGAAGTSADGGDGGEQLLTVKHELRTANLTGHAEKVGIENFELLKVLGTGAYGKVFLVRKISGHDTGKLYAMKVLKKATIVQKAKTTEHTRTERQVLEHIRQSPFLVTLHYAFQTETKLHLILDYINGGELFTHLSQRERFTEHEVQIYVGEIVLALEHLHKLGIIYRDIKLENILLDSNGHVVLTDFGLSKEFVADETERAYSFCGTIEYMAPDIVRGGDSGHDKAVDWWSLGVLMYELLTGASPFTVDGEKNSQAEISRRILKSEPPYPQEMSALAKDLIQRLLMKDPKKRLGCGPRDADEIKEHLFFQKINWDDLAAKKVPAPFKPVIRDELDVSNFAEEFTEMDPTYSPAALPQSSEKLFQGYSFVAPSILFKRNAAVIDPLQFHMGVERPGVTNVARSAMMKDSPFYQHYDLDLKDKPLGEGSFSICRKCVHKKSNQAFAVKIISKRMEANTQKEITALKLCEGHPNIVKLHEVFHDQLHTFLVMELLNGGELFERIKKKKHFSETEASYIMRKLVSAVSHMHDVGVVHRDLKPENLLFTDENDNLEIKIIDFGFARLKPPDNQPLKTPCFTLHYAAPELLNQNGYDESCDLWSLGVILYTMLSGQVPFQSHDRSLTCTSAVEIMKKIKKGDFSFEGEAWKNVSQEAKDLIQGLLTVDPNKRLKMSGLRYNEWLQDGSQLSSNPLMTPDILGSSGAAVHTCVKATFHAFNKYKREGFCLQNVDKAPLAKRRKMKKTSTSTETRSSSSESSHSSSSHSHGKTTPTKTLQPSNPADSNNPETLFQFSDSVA
Ephrin type-B receptor 3 (Homo sapiens), sequence (P54753 whole entry): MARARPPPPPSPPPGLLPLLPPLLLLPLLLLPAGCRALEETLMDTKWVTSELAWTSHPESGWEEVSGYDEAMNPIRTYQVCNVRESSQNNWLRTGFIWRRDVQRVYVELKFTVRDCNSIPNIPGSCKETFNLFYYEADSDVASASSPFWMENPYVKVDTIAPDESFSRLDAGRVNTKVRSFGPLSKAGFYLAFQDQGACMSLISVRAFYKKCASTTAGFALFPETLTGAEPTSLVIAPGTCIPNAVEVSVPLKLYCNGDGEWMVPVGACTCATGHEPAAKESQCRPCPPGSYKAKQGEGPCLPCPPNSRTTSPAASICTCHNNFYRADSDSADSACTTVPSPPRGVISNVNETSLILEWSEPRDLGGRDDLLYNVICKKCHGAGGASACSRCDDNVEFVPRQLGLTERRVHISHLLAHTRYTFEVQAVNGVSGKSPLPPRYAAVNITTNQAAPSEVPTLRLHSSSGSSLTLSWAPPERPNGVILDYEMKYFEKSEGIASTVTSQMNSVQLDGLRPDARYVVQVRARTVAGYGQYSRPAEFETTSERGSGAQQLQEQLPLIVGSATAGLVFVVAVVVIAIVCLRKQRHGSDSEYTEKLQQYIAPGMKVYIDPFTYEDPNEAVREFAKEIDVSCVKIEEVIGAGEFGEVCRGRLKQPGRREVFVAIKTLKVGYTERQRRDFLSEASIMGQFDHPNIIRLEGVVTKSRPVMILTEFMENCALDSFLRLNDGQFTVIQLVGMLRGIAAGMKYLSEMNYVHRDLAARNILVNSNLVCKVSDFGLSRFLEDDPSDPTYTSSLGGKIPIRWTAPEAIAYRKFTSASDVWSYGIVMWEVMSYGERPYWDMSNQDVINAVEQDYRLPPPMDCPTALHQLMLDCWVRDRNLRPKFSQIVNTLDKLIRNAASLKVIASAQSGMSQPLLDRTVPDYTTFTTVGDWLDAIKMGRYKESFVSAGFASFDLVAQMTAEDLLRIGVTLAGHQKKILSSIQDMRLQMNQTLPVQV
Calcium/calmodulin-dependent protein kinase type II subunit beta (Homo sapiens), sequence (Q13554 whole entry): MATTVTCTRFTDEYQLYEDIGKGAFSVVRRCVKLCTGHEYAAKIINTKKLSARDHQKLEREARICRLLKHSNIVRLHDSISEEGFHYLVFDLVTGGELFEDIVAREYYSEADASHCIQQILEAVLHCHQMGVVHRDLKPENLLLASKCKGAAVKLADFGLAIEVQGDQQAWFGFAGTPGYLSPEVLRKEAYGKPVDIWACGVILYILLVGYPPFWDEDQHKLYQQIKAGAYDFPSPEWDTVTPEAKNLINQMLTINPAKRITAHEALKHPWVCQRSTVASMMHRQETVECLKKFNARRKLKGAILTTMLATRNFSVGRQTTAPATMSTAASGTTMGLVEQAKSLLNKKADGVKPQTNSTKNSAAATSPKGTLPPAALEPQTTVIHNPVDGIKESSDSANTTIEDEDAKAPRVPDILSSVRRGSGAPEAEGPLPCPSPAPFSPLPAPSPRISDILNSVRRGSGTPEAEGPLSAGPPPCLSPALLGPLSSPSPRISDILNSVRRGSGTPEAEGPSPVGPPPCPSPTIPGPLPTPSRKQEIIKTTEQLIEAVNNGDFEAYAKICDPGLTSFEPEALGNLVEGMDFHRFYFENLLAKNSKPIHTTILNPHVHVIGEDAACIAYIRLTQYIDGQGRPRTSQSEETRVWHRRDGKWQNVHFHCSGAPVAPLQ
Kappa-type opioid receptor, sequence (P41145 whole entry): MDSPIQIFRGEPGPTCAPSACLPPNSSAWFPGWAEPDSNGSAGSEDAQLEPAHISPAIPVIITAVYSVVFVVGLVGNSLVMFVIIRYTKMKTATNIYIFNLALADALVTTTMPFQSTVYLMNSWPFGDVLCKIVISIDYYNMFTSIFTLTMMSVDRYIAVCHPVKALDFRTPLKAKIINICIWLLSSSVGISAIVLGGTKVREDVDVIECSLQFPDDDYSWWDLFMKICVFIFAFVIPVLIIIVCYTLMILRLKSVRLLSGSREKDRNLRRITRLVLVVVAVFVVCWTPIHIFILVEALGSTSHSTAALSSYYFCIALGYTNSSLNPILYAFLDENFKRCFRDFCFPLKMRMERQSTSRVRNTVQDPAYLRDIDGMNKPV
Interleukin-1 receptor-associated kinase 1 (Homo sapiens), sequence (P51617 whole entry, looked up): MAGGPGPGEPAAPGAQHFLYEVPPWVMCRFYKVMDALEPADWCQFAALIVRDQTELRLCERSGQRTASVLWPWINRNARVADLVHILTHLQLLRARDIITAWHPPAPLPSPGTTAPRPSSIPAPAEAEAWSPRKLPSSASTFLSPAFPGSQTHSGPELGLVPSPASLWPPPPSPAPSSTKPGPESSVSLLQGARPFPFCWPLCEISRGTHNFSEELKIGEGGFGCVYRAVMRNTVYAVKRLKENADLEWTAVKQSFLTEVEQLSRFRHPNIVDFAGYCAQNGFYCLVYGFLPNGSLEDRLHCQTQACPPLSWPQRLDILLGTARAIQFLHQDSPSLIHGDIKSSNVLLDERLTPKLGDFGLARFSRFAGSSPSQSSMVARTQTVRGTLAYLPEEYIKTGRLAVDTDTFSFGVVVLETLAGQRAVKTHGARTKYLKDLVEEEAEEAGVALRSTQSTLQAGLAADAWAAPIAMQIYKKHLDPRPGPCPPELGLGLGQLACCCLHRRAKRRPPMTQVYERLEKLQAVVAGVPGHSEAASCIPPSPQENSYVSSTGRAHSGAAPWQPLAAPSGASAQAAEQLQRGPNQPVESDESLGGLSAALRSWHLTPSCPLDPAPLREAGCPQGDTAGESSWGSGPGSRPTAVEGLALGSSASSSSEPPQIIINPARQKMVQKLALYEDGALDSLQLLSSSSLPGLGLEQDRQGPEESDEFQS
Protein kinase C beta type (Homo sapiens), sequence (P05771 2-671 limits assumed): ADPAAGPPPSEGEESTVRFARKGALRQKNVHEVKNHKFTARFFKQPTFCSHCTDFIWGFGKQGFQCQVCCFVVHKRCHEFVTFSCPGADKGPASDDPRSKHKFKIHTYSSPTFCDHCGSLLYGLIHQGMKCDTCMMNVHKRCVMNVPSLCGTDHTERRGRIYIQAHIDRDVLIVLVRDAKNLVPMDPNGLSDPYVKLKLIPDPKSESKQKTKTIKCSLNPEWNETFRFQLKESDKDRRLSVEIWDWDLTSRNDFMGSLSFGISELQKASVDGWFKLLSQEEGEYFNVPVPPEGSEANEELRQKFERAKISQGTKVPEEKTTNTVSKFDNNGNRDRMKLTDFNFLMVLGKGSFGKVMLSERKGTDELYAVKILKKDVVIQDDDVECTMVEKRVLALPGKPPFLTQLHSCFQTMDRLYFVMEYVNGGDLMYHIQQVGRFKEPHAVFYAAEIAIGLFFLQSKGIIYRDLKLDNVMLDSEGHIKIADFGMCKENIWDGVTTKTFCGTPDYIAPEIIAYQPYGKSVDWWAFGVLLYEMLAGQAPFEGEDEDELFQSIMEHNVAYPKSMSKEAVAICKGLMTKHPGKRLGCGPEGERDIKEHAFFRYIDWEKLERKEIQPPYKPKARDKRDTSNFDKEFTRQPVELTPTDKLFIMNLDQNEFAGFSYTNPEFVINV
Dual specificity mitogen-activated protein kinase kinase 6 (Homo sapiens), sequence (P52564 whole entry): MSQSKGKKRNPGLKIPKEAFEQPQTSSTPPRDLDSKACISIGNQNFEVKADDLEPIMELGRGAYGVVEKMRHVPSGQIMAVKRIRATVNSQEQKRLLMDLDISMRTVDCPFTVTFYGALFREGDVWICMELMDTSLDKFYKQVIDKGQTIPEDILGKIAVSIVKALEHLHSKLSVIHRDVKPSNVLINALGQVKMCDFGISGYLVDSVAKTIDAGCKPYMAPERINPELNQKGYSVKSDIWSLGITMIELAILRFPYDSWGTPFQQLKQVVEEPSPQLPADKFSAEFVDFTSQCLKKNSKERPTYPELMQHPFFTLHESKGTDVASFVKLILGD

SMILES | inhibition [1] | inhibition [2] | inhibition [3] | inhibition [4] | inhibition [5] | inhibition [6] | inhibition [7] | inhibition [8] | inhibition [9] | inhibition [10] | inhibition [11] | inhibition [12] | inhibition [13] | inhibition [14] | inhibition [15] | inhibition [16] | inhibition [17] | inhibition [18] | inhibition [19] | inhibition [20] | other results
O=c1n(Cc2cncn2-c2cccc(Cl)c2)nc(-c2ccc(Cl)cc2)n1C[C@H](O)C(F)(F)F | -8.58% | -1.79% | -2.64% | 7.39% | 5.33% | -0.21% | -4.33% | 2.21% | 1.24% | -1.22% | -1.91% | -1.83% | -3.79% | -0.4% | 5.77% | 8.45% | -0.53% | 5.25% | 3.49% | 15.8% | inhibition [21]: 4.83%; inhibition [22]: -9.1%; inhibition [23]: 1%; inhibition [24]: -4.61%; inhibition [25]: 5.83%; inhibition [26]: 10.4%; inhibition [27]: 8.99%; inhibition [28]: 1.49%; inhibition [29]: -4.61%; inhibition [30]: 5%; inhibition [31]: 10%; inhibition [32]: -3%; inhibition [33]: 16%; inhibition [34]: -3%
C[C@H](O)c1nc(Cn2nc(-c3ccc(Cl)cc3)n(C[C@H](O)C(F)(F)F)c2=O)nn1-c1cccc(Cl)c1 [PECAVAPTAN] | -0.27% | -3.05% | 2.39% | 1.81% | -2.47% | 1.15% | -6.92% | -4.02% | -0.22% | -3.82% | -5.89% | 6.21% | -7.04% | -0.58% | 7.34% | 6.1% | -5.91% | -1.45% | 3.01% | 16.2% | inhibition [21]: 1.02%; inhibition [22]: -5.19%; inhibition [23]: 2.79%; inhibition [24]: -6.76%; inhibition [25]: 8.75%; inhibition [26]: 6.61%; inhibition [27]: 2.69%; inhibition [28]: -5.08%; inhibition [29]: -9.11%; inhibition [30]: 5%; inhibition [31]: 19%; inhibition [32]: 4%; inhibition [33]: 14%; inhibition [34]: 11%
